From ChEMBL document CHEMBL1142762, “Identification of 4-methyl-1,2,3,4,10,10a-hexahydropyrazino[1,2-a]indoles as 5-HT2C receptor agonists” (Bioorg Med Chem Lett, 2005)

Legend:
[1] = target: 5-hydroxytryptamine receptor 2B (Homo sapiens, UniProt P41595); assay: Binding affinity toward 5-HT2B receptor evaluated by displacement of [3H]5-HT radioligand
[2] = target: T1, 5-hydroxytryptamine receptor 2C (Homo sapiens) (UniProt P28335); assay: Relative efficacy toward 5-HT2C receptor
T1 sequence (whole entry): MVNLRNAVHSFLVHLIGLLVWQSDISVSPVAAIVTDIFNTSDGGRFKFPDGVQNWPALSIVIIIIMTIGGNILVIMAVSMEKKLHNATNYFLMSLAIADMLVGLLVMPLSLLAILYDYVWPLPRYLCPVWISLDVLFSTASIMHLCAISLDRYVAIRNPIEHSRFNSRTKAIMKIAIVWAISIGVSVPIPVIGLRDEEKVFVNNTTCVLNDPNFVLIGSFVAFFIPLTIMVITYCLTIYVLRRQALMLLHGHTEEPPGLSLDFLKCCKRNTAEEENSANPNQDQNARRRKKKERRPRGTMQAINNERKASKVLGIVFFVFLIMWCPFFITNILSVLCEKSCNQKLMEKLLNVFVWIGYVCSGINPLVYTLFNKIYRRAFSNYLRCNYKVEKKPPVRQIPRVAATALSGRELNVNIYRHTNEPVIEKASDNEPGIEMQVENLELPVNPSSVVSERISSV

[3] = target: T2, 5-hydroxytryptamine receptor 2C (Homo sapiens, UniProt P28335); assay: Binding affinity toward 5-HT2C receptor evaluated by displacement of [3H]5-HT radioligand
T2 sequence (P28335 whole entry): T1 sequence (whole entry)

[4] = target: 5-hydroxytryptamine receptor 2A (Homo sapiens, UniProt P28223); assay: Binding affinity toward 5-HT2A receptor evaluated by displacement of [125I]DOI radioligand
Sequence of 5-hydroxytryptamine receptor 2A (P28223 whole entry): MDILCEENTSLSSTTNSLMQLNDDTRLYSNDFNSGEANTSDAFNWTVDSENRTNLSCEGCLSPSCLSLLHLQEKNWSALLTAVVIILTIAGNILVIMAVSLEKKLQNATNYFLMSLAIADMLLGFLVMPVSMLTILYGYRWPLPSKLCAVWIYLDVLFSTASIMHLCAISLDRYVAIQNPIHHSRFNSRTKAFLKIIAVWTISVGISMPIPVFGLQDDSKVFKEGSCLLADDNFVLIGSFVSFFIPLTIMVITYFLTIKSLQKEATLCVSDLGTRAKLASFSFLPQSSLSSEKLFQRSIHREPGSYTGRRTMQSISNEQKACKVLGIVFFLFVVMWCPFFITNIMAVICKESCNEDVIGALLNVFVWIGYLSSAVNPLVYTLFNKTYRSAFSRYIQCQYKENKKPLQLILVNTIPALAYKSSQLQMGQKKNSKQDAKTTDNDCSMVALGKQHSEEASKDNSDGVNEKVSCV

Sequence of 5-hydroxytryptamine receptor 2B (P41595 whole entry): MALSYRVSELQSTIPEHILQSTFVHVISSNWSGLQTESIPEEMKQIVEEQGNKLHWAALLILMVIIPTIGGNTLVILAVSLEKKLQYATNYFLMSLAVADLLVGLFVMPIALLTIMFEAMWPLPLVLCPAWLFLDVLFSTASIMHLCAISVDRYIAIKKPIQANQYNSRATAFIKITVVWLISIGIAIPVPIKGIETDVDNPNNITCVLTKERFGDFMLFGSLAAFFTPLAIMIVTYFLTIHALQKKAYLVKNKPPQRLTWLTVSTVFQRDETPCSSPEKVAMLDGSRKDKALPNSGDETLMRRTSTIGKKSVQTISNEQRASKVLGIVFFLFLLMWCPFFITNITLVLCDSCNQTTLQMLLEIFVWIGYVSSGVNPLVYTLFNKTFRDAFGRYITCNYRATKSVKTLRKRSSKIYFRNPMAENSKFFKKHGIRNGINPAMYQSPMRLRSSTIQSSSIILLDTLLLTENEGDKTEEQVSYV

Compound | Ki [1] | Efficacy [2] | Ki [3] | Ki [4]
Cc1c(Cl)ccc2c1N1[C@H](CNC[C@H]1C)C2 | 19 nM | 97% | 1.9 nM | 40 nM
Cc1ccc2c(c1)N1[C@@H](CNC[C@H]1C)C2 | 21 nM | 100% | 1.3 nM | 22 nM
Cc1ccc2c(c1C)N1[C@H](CNC[C@H]1C)C2 | 67 nM | 91% | 9.5 nM | 102 nM
C[C@@H]1CNC[C@H]2Cc3ccc(C(F)(F)F)cc3N21 | 11 nM | 94% | 1.4 nM | 7.5 nM
Cc1c(Cl)ccc2c1N1CCNC[C@@H]1C2 | 140 nM | 80% | 32 nM | 52 nM
CC(=O)Nc1ccc2c(c1)N1[C@@H](CNC[C@H]1C)C2 | 960 nM | 24% | 680 nM | 1100 nM
Cc1cccc2c1N1[C@@H](CNC[C@H]1C)C2 | 59 nM | 100% | 2.6 nM | 43 nM
Cc1ccc2c(c1C)N1[C@@H](CNC[C@H]1C)C2 | 13 nM | 96% | 1.7 nM | 34 nM
Cc1c(Cl)ccc2c1N1[C@@H](CNC[C@H]1C)C2 | 3.2 nM | 98% | 0.3 nM | 2.6 nM
C[C@@H]1CNC[C@H]2Cc3ccc(CO)cc3N21 | 250 nM | 97% | 34 nM | 290 nM
C[C@@H]1CNC[C@H]2Cc3ccccc3N21 | 15 nM | 97% | 2.2 nM | 1.9 nM
C[C@@H]1CNC[C@@H]2Cc3ccccc3N21 (stereo in doubt; 8) [listing 1 of 2 here] | – | 87% | – | –
C[C@@H]1CNC[C@@H]2Cc3ccccc3N21 (stereo in doubt; 8) [listing 2 of 2 here] | 160 nM | – | 22 nM | 61 nM
Clc1ccc2c(c1)N1CCNCC1C2 (stereo not drawn) | 53 nM | 99% | 31 nM | 32 nM
C[C@@H]1CNC[C@@H]2Cc3ccccc3N21 (stereo in doubt; 7) [listing 1 of 2 here] | – | 94% | – | –
C[C@@H]1CNC[C@H]2Cc3ccc(C#N)cc3N21 | 90 nM | 77% | 3.8 nM | 110 nM
C[C@@H]1CNC[C@@H]2Cc3ccccc3N21 (stereo in doubt; 7) [listing 2 of 2 here] | 210 nM | – | 13 nM | 55 nM
C[C@H]1CNC[C@@H]2Cc3ccccc3N21 | 2600 nM | 62% | 180 nM | 430 nM
Cc1c(Cl)ccc2c1N1CCNC[C@H]1C2 | 10 nM | 90% | 1.5 nM | 6.2 nM
